What all share (type): cell-based
In assay [1] the target is Met (Homo sapiens (Human), UniProt P08581). Kind of assay: Met autophosphorylation ELISA in PC-3 cells. Conditions: cellular, HGF-stimulated, phospho-Met ELISA, read-out: c-Met IC50. The protocol:
PC-3 prostate cancer cells (ATCC #CRL-1435) were seeded at 4×10^4 cells/well onto 24-well plates (Greiner #662165), in DMEM (Thermo Fisher #11995-040) containing 10% FBS (Thermo Fisher #26140-079), 1% MEM NEAA (Thermo Fisher #11140-050), 1% GlutaMax (Thermo Fisher #35050-061), and 1% Penicillin Streptomycin (Thermo Fisher #15140-122). PC-3 cells were incubated at 37° C., 5% CO2 for 24 h and then starved for 3 h in serum-free medium. Test compounds were serially diluted to produce an 8-point dose curve in fresh serum-free medium to a final concentration of 0.3% DMSO (vehicle) and added to the cells and incubated for 1 h. Cells were then stimulated with 100 ng/mL recombinant human HGF (R&D Systems #294-HG-250) for 10 min, washed with cold PBS, and immediately lysed with 130 μL of cold 1× lysis buffer [20 mM Tris, 137 mM sodium chloride, 2 mM EDTA, 10% glycerol, 1% NP-40 alternative, 1 mM activated sodium orthovanadate, 1 mM PefaBloc SC (Sigma-Aldrich #11429868001), and protease/phosphatase inhibitor tablet (Thermo Fisher #A32959)]. Lysates were clarified by centrifugation and 100 μL/well added into the PathScan phospho-Met (panTyr) Sandwich ELISA (Cell Signaling Technology #7333). Assay was performed according to manufacturer's instructions. Positive control wells (100% activity) contained HGF-stimulated, DMSO-treated cell lysates. Negative control wells (0% activity) contained HGF-stimulated, reference inhibitor-treated cell lysates. IC50 values were calculated by nonlinear regression analysis using a 4-parameter logistic curve fit in ActivityBase XE (IDBS).
For orientation: In an ELISA, binding on a coated surface is turned into a signal by an enzyme label.

For assay [2], the target named is AXL (Homo sapiens (Human), UniProt P30530). Kind of assay: AXL autophosphorylation ELISA in A-172 cells. The settings on record: cellular, Gas6-stimulated, phospho-AXL ELISA. The method, then: A-172 glioblastoma cells (ATCC #CRL-1620) were seeded at 2.5×10^5 cells/well onto 24-well plates (Greiner #662165), in […] (Thermo Fisher #11995-040) containing 10% FBS (Thermo Fisher #26140-079), […] (Thermo Fisher #11140-050), […] (Thermo Fisher #35050-061), and 1% Penicillin Streptomycin (Thermo Fisher #15140-122). A-172 cells were incubated at 37° C., […] for 24 hand then starved for 24 h in serum-free medium. Test compounds were serially diluted to produce an 8-point dose curve in fresh serum-free medium to a final concentration of 0.3% DMSO (vehicle) and added to the cells and incubated for 1 h. Cells were then stimulated with 1 μg/mL recombinant human Gas6 (R&D Systems #885-GSB-500) for 15 min, washed with cold PBS, and immediately lysed with 150 μL of cold 1× lysis buffer [20 mM Tris, 137 mM sodium chloride, 2 mM EDTA, 10% glycerol, 1% NP-40 alternative, 1 mM activated sodium orthovanadate, 1 mM PefaBloc SC (Sigma-Aldrich #11429868001), protease/phosphatase inhibitor tablet (Thermo Fisher #A32959)]. Lysates were collected and 100 μL/well added into the human phospho-AXL DuoSet IC ELISA (R&D Systems #DYC2228-2). Assay was performed according to manufacturer's instructions and sample phospho-AXL concentrations were extrapolated using human phospho-AXL control (R&D Systems #841645) as a standard. Positive control wells (100% activity) contained Gas6-stimulated, DMSO-treated cell lysates. Negative control wells (0% activity) contained Gas6-stimulated, reference inhibitor-treated cell lysates. IC50 values were calculated by nonlinear regression analysis using a 4-parameter logistic curve fit in ActivityBase XE (IDBS).
AXL, sequence (P30530 26-894): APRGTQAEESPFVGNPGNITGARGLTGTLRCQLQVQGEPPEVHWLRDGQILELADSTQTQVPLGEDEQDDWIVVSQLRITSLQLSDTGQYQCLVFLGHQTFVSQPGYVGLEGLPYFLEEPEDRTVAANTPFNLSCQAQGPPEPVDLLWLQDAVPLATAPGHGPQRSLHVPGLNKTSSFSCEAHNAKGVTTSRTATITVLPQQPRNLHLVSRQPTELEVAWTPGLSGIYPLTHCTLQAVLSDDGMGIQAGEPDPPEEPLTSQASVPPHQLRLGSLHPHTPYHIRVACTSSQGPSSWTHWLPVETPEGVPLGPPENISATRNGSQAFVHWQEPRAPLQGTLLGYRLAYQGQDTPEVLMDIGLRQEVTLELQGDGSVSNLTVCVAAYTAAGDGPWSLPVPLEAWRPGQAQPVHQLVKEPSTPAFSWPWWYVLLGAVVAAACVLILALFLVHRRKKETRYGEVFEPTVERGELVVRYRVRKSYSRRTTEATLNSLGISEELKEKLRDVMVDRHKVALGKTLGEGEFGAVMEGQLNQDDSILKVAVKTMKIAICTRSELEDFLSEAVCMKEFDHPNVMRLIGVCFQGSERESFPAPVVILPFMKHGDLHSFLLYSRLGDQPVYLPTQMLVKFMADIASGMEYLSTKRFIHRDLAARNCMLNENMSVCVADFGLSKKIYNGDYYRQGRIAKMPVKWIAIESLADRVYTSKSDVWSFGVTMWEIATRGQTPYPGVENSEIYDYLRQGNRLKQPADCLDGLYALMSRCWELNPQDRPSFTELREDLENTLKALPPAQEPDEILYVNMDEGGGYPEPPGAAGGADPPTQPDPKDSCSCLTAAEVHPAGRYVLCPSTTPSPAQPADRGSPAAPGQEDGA

Assay [3] deals with KDR (Homo sapiens (Human), UniProt P35968). Kind of assay: KDR autophosphorylation ELISA in HUVEC cells. The settings on record: cellular, VEGF165-stimulated, phospho-KDR ELISA. The protocol: Human umbilical vein endothelial cells or HUVEC (Lonza #C2519A) were seeded at 2×10^4 cells/well onto 96-well plates (Corning #3904), in EGM-2 growth medium (Lonza #CC-3162) containing 1% Penicillin Streptomycin (Thermo Fisher #15140-122). HUVEC cells were incubated at 37° C., 5% CO2 for 24 h and then starved for 24 h in serum-free EBM-2 basal medium (Lonza #CC-3156) containing 1% Penicillin Streptomycin. Test compounds were serially diluted to produce an 8-point dose curve in fresh serum-free medium to a final concentration of 0.3% DMSO (vehicle) and added to the cells and incubated for 1 h. Cells were then stimulated with 100 ng/mL recombinant human VEGF165 (R&D Systems #293-VE-500) for 5 min, washed with cold PBS, and immediately lysed with 130 μL of cold 1× lysis buffer [20 mM Tris, 137 mM sodium chloride, 2 mM EDTA, 10% glycerol, 1% NP-40 alternative, 1 mM activated sodium orthovanadate, 1 mM PefaBloc SC (Sigma-Aldrich #11429868001), protease/phosphatase inhibitor tablet (Thermo Fisher #A32959)]. Lysates were collected and 100 μL/well added into the human phospho-KDR DuoSet IC ELISA (R&D Systems #DYC1766-2). Assay was performed according to manufacturer's instructions and sample phospho-KDR concentrations were extrapolated using human phospho-KDR control (R&D Systems #841421) as a standard. Positive control wells (100% activity) contained VEGF165-stimulated, DMSO-treated cell lysates. Negative control wells (0% activity) contained non-stimulated cell lysates. IC50 values were calculated by nonlinear regression analysis using a 4-parameter logistic curve fit in ActivityBase XE (IDBS).
KDR, sequence (P35968 20-1356): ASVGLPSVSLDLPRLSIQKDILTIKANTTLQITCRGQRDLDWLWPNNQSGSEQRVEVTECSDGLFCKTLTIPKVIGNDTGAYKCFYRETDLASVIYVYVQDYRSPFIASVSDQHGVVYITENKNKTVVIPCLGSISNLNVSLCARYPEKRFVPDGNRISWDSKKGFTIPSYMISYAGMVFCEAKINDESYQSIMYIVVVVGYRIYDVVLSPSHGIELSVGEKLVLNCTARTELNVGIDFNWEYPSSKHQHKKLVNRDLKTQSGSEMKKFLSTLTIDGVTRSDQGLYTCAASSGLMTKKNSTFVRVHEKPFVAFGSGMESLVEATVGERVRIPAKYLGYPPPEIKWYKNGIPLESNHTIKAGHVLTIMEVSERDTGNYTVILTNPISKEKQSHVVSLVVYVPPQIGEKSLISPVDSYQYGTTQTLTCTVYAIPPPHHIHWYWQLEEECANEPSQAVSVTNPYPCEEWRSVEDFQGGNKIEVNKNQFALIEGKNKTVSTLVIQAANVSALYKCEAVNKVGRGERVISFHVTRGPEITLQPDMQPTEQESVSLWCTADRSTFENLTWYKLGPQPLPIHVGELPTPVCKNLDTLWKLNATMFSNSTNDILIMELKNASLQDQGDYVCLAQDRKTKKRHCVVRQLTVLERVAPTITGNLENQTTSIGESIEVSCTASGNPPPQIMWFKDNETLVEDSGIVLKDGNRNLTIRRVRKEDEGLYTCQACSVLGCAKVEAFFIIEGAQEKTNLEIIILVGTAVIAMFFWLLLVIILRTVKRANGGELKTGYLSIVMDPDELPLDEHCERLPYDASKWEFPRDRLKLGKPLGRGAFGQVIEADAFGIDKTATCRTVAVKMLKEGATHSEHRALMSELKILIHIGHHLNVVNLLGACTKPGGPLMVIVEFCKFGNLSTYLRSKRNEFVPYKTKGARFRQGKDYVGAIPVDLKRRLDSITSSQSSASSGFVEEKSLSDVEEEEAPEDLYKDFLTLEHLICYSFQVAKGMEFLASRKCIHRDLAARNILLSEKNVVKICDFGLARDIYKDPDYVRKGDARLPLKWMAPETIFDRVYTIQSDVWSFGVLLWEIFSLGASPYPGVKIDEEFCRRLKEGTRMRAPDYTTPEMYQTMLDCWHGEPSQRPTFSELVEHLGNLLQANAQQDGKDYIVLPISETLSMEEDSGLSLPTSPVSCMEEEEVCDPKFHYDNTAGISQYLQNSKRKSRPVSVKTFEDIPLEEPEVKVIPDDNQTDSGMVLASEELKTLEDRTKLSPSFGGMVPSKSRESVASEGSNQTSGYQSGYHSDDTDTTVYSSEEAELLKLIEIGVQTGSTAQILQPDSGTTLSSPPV

These results are taken from patent US11673897B2, “Compounds for the treatment of kinase-dependent disorders” (Exelixis, Inc., priority 2018, dated 2023).

Met, sequence (P08581 25-1390): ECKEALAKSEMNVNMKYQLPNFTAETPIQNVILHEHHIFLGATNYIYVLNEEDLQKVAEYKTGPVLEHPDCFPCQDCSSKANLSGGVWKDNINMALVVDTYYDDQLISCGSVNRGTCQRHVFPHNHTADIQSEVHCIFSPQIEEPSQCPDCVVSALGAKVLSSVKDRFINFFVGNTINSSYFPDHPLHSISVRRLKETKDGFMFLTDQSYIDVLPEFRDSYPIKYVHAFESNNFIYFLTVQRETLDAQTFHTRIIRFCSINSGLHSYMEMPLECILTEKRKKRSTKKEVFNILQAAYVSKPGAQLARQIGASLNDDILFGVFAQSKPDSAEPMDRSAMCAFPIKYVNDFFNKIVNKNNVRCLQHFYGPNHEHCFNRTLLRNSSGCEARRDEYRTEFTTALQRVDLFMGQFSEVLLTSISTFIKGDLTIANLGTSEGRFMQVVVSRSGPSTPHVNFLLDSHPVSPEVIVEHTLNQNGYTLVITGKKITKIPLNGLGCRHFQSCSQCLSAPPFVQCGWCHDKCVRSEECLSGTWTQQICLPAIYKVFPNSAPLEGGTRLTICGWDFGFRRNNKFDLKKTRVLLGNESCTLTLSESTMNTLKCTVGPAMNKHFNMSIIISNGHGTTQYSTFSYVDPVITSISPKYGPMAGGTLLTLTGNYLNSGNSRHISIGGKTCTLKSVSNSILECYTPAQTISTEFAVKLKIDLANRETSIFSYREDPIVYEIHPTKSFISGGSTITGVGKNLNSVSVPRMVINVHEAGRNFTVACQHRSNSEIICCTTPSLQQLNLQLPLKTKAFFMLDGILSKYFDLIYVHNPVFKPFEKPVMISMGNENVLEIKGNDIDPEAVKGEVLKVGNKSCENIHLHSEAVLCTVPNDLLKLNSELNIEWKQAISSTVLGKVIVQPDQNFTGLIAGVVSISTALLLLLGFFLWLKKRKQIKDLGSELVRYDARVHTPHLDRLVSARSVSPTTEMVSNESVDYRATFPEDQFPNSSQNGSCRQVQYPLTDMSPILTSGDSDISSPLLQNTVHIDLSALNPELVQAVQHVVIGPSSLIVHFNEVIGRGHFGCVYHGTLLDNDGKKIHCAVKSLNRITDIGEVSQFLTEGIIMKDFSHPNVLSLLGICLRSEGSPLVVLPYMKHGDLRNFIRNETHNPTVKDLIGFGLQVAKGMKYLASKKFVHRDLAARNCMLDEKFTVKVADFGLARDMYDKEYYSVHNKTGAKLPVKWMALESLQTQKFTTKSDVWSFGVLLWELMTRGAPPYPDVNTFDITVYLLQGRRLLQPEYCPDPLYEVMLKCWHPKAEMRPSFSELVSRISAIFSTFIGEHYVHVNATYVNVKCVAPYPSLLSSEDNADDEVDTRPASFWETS

The IC50 is the concentration that inhibits the measured activity by half. Regarding `COc1cc2nccc(Oc3ncc(NC(=O)C4(C(=O)Nc5ccc(F)cc5)CC4)cc3C#N)c2nc1OC` [Compound 84, 1-N′-[5-Cyano-6-[(6,7-dimethoxy-1,5-naphthyridin-4-yl)oxy]pyridin-3-yl]-1-N-(4-fluorophenyl)cyclopropane-1,1-dicarboxamide], the IC50 in assay [1], in assay [2] and in assay [3] was more than 0.3 µM in each case.
Turning to `COCCOc1cc2ncnc(Oc3ccc(NC(=O)C4(C(=O)Nc5ccc(F)cc5)CC4)cn3)c2nc1OC` [Compound 156, 1-N-(4-Fluorophenyl)-1-N′-[6-[6-methoxy-7-(2-methoxyethoxy)pyrido[3,2-d]pyrimidin-4-yl]oxypyridin-3-yl]cyclopropane-1,1-dicarboxamide], the figures for the IC50 in assay [1], in assay [2] and in assay [3] were more than 0.3 µM, 0.01 to 0.1 µM and more than 0.3 µM, respectively.
For the compound `COc1cc2nccc(Oc3ccc(NC(=O)C4(C(=O)Nc5ccc(F)cc5)CC4)c(C(N)=O)n3)c2nc1OC` [Compound 91, 1-N′-[2-Carbamoyl-6-[(6,7-dimethoxy-1,5-naphthyridin-4-yl)oxy]pyridin-3-yl]-1-N-(4-fluorophenyl)cyclopropane-1,1-dicarboxamide], the IC50 in assay [1], in assay [2] and in assay [3] was more than 0.3 µM each time.
Turning to `COc1cc(Oc2ccnc3cc(OC)c(OC)nc23)ncc1NC(=O)C1(C(=O)Nc2ccc(F)cc2)CC1` [Compound 88, 1-N′-[6-[(6,7-Dimethoxy-1,5-naphthyridin-4-yl)oxy]-4-methoxypyridin-3-yl]-1-N-(4-fluorophenyl)cyclopropane-1,1-dicarboxamide], the IC50 in assay [1] was more than 0.3 µM; in assay [2] it was 0.1 to 0.3 µM; in assay [3] it was more than 0.3 µM.
In the case of `CCc1noc(-c2cc3c(Oc4ncc(NC(=O)C5(C(=O)Nc6ccc(F)cc6)CC5)cc4F)ccnc3cc2OC)n1` [Compound 27, 1-N′-[6-[6-(3-Ethyl-1,2,4-oxadiazol-5-yl)-7-methoxyquinolin-4-yl]oxy-5-fluoropyridin-3-yl]-1-N-(4-fluorophenyl)cyclopropane-1,1-dicarboxamide], the IC50 in assay [1], in assay [2] and in assay [3] was more than 0.3 µM in each case.
Regarding `O=C(Nc1ccc(F)cc1)C1(C(=O)Nc2ccc(Oc3ccnc4cc5c(nc34)OCCO5)nc2)CC1` [Compound 103, 1-N′-[6-(2,3-Dihydro-[1,4]dioxino[2,3-b][1,5]naphthyridin-6-yloxy)pyridin-3-yl]-1-N-(4-fluorophenyl)cyclopropane-1,1-dicarboxamide], the IC50 in assay [1], in assay [2] and in assay [3] was more than 0.3 µM throughout.
As for `COCCOc1nc2c(Oc3ncc(NC(=O)C4(C(=O)Nc5ccc(F)cc5)CC4)cc3F)ccnc2cc1OC` [Compound 134, 1-N′-[5-Fluoro-6-[[7-methoxy-6-(2-methoxyethoxy)-1,5-naphthyridin-4-yl]oxy]pyridin-3-yl]-1-N-(4-fluorophenyl)cyclopropane-1,1-dicarboxamide], the IC50 in assay [1], in assay [2] and in assay [3] was more than 0.3 µM in each case.
With `O=C(Nc1ccc(F)cc1)C1(C(=O)Nc2cnc(Oc3ccnc4cc5c(nc34)OCCO5)c(F)c2)CC1` [Compound 105, 1-N′-[6-(2,3-Dihydro-[1,4]dioxino[2,3-b][1,5]naphthyridin-6-yloxy)-5-fluoropyridin-3-yl]-1-N-(4-fluorophenyl)cyclopropane-1,1-dicarboxamide], the IC50 in assay [1], in assay [2] and in assay [3] was more than 0.3 µM throughout.
Turning to `COCCOc1cc2nccc(Oc3ncc(NC(=O)C4(C(=O)Nc5ccc(F)cc5)CC4)cc3Cl)c2nc1OC` [Compound 115, 1-N′-[5-Chloro-6-[[6-methoxy-7-(2-methoxyethoxy)-1,5-naphthyridin-4-yl]oxy]pyridin-3-yl]-1-N-(4-fluorophenyl)cyclopropane-1,1-dicarboxamide], the IC50 in assay [1] is 0.01 to 0.1 µM; in assay [2], 0.1 to 0.3 µM; in assay [3], more than 0.3 µM.
For `COCCOc1cc2nccc(Oc3ccc(NC(=O)C4(C(=O)Nc5ccc(F)cc5)CC4)cn3)c2nc1OC` [Compound 114, 1-N-(4-Fluorophenyl)-1-N′-[6-[[6-methoxy-7-(2-methoxyethoxy)-1,5-naphthyridin-4-yl]oxy]pyridin-3-yl]cyclopropane-1,1-dicarboxamide] the same measures were 0.1 to 0.3 µM, 0.1 to 0.3 µM and more than 0.3 µM.
As for `COc1cc2nccc(Oc3ncc(NC(=O)C4(C(=O)Nc5ccc(F)cc5)CC4)cc3F)c2cc1C(=O)O` [Compound 15, 4-[3-Fluoro-5-[[1-[(4-fluorophenyl)carbamoyl]cyclopropanecarbonyl]amino]pyridin-2-yl]oxy-7-methoxyquinoline-6-carboxylic acid], the IC50 in assay [1], in assay [2] and in assay [3] was more than 0.3 µM each time.
As for `O=C(Nc1ccc(F)cc1)C1(C(=O)Nc2cnc(Oc3ccnc4cc5c(nc34)OCCO5)c(Cl)c2)CC1` [Compound 104, 1-N′-[5-Chloro-6-(2,3-dihydro-[1,4]dioxino[2,3-b][1,5]naphthyridin-6-yloxy)pyridin-3-yl]-1-N-(4-fluorophenyl)cyclopropane-1,1-dicarboxamide], the IC50 in assay [1], in assay [2] and in assay [3] was more than 0.3 µM throughout.
Turning to `COc1cc2nccc(Oc3cc(C)c(NC(=O)C4(C(=O)Nc5ccc(F)cc5)CC4)cn3)c2nc1OC` [Compound 83, 1-N′-[6-[(6,7-Dimethoxy-1,5-naphthyridin-4-yl)oxy]-4-methylpyridin-3-yl]-1-N-(4-fluorophenyl)cyclopropane-1,1-dicarboxamide], the IC50 in assay [1], in assay [2] and in assay [3] was more than 0.3 µM each time.
Turning to `COCCOc1cc2ncnc(Oc3ncc(NC(=O)C4(C(=O)Nc5ccc(F)cc5)CC4)cc3F)c2nc1OC` [Compound 159, 1-N′-[5-Fluoro-6-[6-methoxy-7-(2-methoxyethoxy)pyrido[3,2-d]pyrimidin-4-yl]oxypyridin-3-yl]-1-N-(4-fluorophenyl)cyclopropane-1,1-dicarboxamide], the IC50 in assay [1], in assay [2] and in assay [3] was more than 0.3 µM in each case.
